These results are taken from PubChem BioAssay AID316 (DTP/NCI, 2004).

The test concerns P1534 leukemia ip, CD2F1 mice, survival T/C. Briefly: NCI In Vivo Anticancer Drug Screen. Data for tumor model P1534 Leukemia (intraperitoneal) in CD2F1 (CDF1) mice. To be noted: endpoint: mean survival time, higher = longer survival. As for the experimental part:
The antitumor activity of compounds was measured in mice bearing transplantable tumors. Survival or tumor size were measured and the results are expressed as the measurement made in the treated group (T) divided by the measurement made in the vehicle treated control group (C). The tumor model used in this assay is P1534 Leukemia (intraperitoneal) in CD2F1 (CDF1) mice

The mark [1] stands for this setting: dose: 15.6 mg/kg/injection, schedule: Q01DX010 (ip), vehicle: saline.
Where [2] appears, read: dose: 31.3 mg/kg/injection, schedule: Q01DX010 (ip), vehicle: saline.
[3] abbreviates: dose: 62.5 mg/kg/injection, schedule: Q01DX010 (ip), vehicle: saline.
The mark [4] stands for this setting: dose: 125.0 mg/kg/injection, schedule: Q01DX010 (ip), vehicle: saline.
The mark [5] stands for this setting: dose: 250.0 mg/kg/injection, schedule: Q01DX010 (ip), vehicle: saline.

Where “and” joins values, the source holds several entries; their conditions need not be identical. Equal values may be shown once. Toxic doses and inconclusive results are not listed.

With `COc1ccc(C2NC(C(=O)O)Cc3c2[nH]c2ccccc32)cc1OC` (stereo not given), the T/C runs as follows: (dose: 50.0 mg/kg/injection, schedule: Q01DX010 (ip), vehicle: saline) 96 % of control; (dose: 100.0 mg/kg/injection, schedule: Q01DX010 (ip), vehicle: saline) 100 % of control; (dose: 200.0 mg/kg/injection, schedule: Q01DX010 (ip), vehicle: saline) 100 % of control; (dose: 400.0 mg/kg/injection, schedule: Q01DX010 (ip), vehicle: saline) 100 % of control.
Take `O=C(Nc1ccc(C2=NCCN2)cc1)c1ccc(C(=O)Nc2ccc(C3=NCCN3)cc2)cc1`: the T/C runs as follows: (dose: 8.0 mg/kg/injection, schedule: Q01DX010 (ip), vehicle: saline) 104 % of control; (dose: 16.0 mg/kg/injection, schedule: Q01DX010 (ip), vehicle: saline) 100 % of control; (dose: 32.0 mg/kg/injection, schedule: Q01DX010 (ip), vehicle: saline) 104 % of control and 100 % of control; (dose: 64.0 mg/kg/injection, schedule: Q01DX010 (ip), vehicle: saline) 104 % of control and 100 % of control.
Regarding `NC(Cn1ccc(=O)c(O)c1)C(=O)O` (stereo not given), the T/C was 92 % of control (dose: 118.0 mg/kg/injection, schedule: Q01DX010 (ip), vehicle: saline); 92 % of control (dose: 178.0 mg/kg/injection, schedule: Q01DX010 (ip), vehicle: saline); 92 % of control (dose: 267.0 mg/kg/injection, schedule: Q01DX010 (ip), vehicle: saline).
For the molecule `Nc1c(Br)cc2c(c1Br)Cc1cc([N+](=O)[O-])ccc1-2`, the T/C is, setting by setting: under setting [1], 115 % of control; under setting [2], 107 % of control and 110 % of control; under setting [3], 107 % of control; under setting [4], 110 % of control and 115 % of control; under setting [5], 107 % of control.
For the molecule `COc1cc2c3c(c4ccc(O)cc4c2cc1OC)[C@@H](O)[C@@H]1CCCN1C3`, the T/C is, setting by setting: (dose: 2.5 mg/kg/injection, schedule: Q01DX009 (ip), vehicle: water) 98 % of control; (dose: 5.0 mg/kg/injection, schedule: Q01DX009 (ip), vehicle: water) 113 % of control; (dose: 15.0 mg/kg/injection, schedule: Q01DX009 (ip), vehicle: water) 110 % of control; (dose: 20.0 mg/kg/injection, schedule: Q01DX009 (ip), vehicle: water) 163 % of control; (dose: 20.0 mg/kg/injection, schedule: Q01DX010 (ip), vehicle: water) 113 % of control; (dose: 30.0 mg/kg/injection, schedule: Q01DX010 (ip), vehicle: water) 86 % of control.
As for `CC(=O)NC1=C(N2CC2)C(=O)C(NC(C)=O)=C(N2CC2)C1=O`, the T/C by setting is: (dose: 31.3 micrograms/kg/injection, schedule: Q01DX010 (ip), vehicle: saline) 107 % of control; (dose: 62.5 micrograms/kg/injection, schedule: Q01DX010 (ip), vehicle: saline) 110 % of control.
`OCC1OC(n2cnc3c(Cl)ncnc32)C(O)C1O` (stereo not given): the T/C runs as follows: under setting [3], 94 % of control and 100 % of control; under setting [4], 100 % of control; under setting [5], 111 % of control; (dose: 500.0 mg/kg/injection, schedule: Q01DX010 (ip), vehicle: saline) 105 % of control and 88 % of control.
For the molecule `CC[C@]1(O)C[C@H]2CN(CCc3c([nH]c4ccccc34)[C@@](C(=O)OC)(c3cc4c(cc3OC)N(C=O)[C@H]3[C@@](O)(C(=O)OC)[C@H](OC(C)=O)[C@]5(CC)C=CCN6CC[C@]43[C@@H]65)C2)C1`, the T/C is 97 % of control (dose: 0.02 mg/kg/injection, schedule: Q01DX010 (ip), vehicle: saline); 86 % of control (dose: 0.03 mg/kg/injection, schedule: Q01DX010 (ip), vehicle: saline); 100 % of control (dose: 0.05 mg/kg/injection, schedule: Q01DX010 (ip), vehicle: water); 156 % of control (dose: 0.1 mg/kg/injection, schedule: Q01DX010 (ip), vehicle: water); 160 % of control and 259 % of control and 306 % of control (dose: 0.13 mg/kg/injection, schedule: Q02DX008 (ip), vehicle: saline); 119 % of control and 181 % of control and 234 % of control (dose: 0.15 mg/kg/injection, schedule: Q## X004 (ip), vehicle: saline). For the same molecule, the T/C is 208 % of control (dose: 0.16 mg/kg/injection, schedule: Q## X032 (ip), vehicle: saline); 305 % of control (dose: 0.2 mg/kg/injection, schedule: Q01DX010 (ip), vehicle: water); 221 % of control and 270 % of control and 290 % of control (dose: 0.2 mg/kg/injection, schedule: Q02DX008 (ip), vehicle: saline); 231 % of control and 242 % of control and 270 % of control (dose: 0.22 mg/kg/injection, schedule: Q## X004 (ip), vehicle: saline); 187 % of control and 193 % of control and 212 % of control (dose: 0.24 mg/kg/injection, schedule: Q## X032 (ip), vehicle: saline); 298 % of control and 302 % of control and 352 % of control (dose: 0.3 mg/kg/injection, schedule: Q02DX008 (ip), vehicle: saline). The T/C reads like this: (dose: 0.35 mg/kg/injection, schedule: Q## X004 (ip), vehicle: saline) 256 % of control and 273 % of control and 304 % of control; (dose: 0.36 mg/kg/injection, schedule: Q## X032 (ip), vehicle: saline) 234 % of control and 241 % of control and 282 % of control; (dose: 0.44 mg/kg/injection, schedule: Q02DX008 (ip), vehicle: saline) 154 % of control and 197 % of control and 358 % of control; (dose: 0.53 mg/kg/injection, schedule: Q## X004 (ip), vehicle: saline) 270 % of control and 344 % of control and 366 % of control; (dose: 0.54 mg/kg/injection, schedule: Q## X032 (ip), vehicle: saline) 274 % of control and 275 % of control and 335 % of control; (dose: 0.8 mg/kg/injection, schedule: Q## X004 (ip), vehicle: saline) 283 % of control and 357 % of control. In addition, the T/C is, setting by setting: (dose: 0.8 mg/kg/injection, schedule: Q## X032 (ip), vehicle: saline) 190 % of control and 218 % of control and 92 % of control; (dose: 1.2 mg/kg/injection, schedule: Q## X004 (ip), vehicle: saline) 152 % of control; (dose: 1.2 mg/kg/injection, schedule: Q## X032 (ip), vehicle: saline) 92 % of control; (dose: 1.45 mg/kg/injection, schedule: Q01DX001 (ip), vehicle: saline) 188 % of control and 237 % of control; (dose: 1.45 mg/kg/injection, schedule: Q## X001 (ip), vehicle: saline) 294 % of control; (dose: 1.5 mg/kg/injection, schedule: Q01DX001 (ip), vehicle: saline) 159 % of control and 188 % of control and 212 % of control. Besides, the T/C is 100 % of control (dose: 1.8 mg/kg/injection, schedule: Q## X004 (ip), vehicle: saline); 158 % of control (dose: 2.9 mg/kg/injection, schedule: Q01DX001 (ip), vehicle: saline); 297 % of control (dose: 2.9 mg/kg/injection, schedule: Q## X001 (ip), vehicle: saline); 123 % of control and 208 % of control (dose: 26.0 micrograms/kg/injection, schedule: Q01DX010 (ip), vehicle: saline); 167 % of control and 173 % of control (dose: 27.0 micrograms/kg/injection, schedule: Q01DX015 (ip), vehicle: saline); 161 % of control and 240 % of control (dose: 40.0 micrograms/kg/injection, schedule: Q01DX015 (ip), vehicle: saline). Further, the T/C is 221 % of control and 226 % of control (dose: 60.0 micrograms/kg/injection, schedule: Q01DX015 (ip), vehicle: saline); 215 % of control and 228 % of control and 260 % of control (dose: 90.0 micrograms/kg/injection, schedule: Q01DX015 (ip), vehicle: saline); 221 % of control and 281 % of control and 297 % of control (dose: 135.0 micrograms/kg/injection, schedule: Q01DX015 (ip), vehicle: saline); 196 % of control and 233 % of control and 340 % of control (dose: 200.0 micrograms/kg/injection, schedule: Q01DX015 (ip), vehicle: saline); 181 % of control and 240 % of control (dose: 300.0 micrograms/kg/injection, schedule: Q01DX010 (ip), vehicle: saline); 200 % of control (dose: 300.0 micrograms/kg/injection, schedule: Q01DX015 (ip), vehicle: saline).
As to `NCCc1ccccc1`, the T/C runs as follows: under setting [1], 96 % of control; under setting [2], 92 % of control; under setting [3], 100 % of control.
Regarding `CC(=O)Nc1c(Cl)cc2c(c1Cl)Cc1cc([N+](=O)[O-])ccc1-2`, the T/C runs as follows: under setting [1], 107 % of control; under setting [2], 107 % of control; under setting [3], 107 % of control and 100 % of control; under setting [4], 107 % of control.
In the case of `CCCNc1ncnc2[nH]ncc12`, the T/C is 100 % of control (dose: 3.13 mg/kg/injection, schedule: Q01DX010 (ip), vehicle: saline); 88 % of control and 100 % of control (dose: 6.25 mg/kg/injection, schedule: Q01DX010 (ip), vehicle: saline); 111 % of control and 100 % of control (dose: 12.5 mg/kg/injection, schedule: Q01DX010 (ip), vehicle: saline); 94 % of control and 100 % of control (dose: 25.0 mg/kg/injection, schedule: Q01DX010 (ip), vehicle: saline).
